# From patent US6875771B2, “Pyridopyrimidine derivatives as 5-HT6 antagonists” (Bristol-Myers Squibb Company, priority 2002, dated 2005)
# pIC50: −log10 of the molar value.
# Target: T1, human 5-HT6 receptor (Homo sapiens, UniProt P50406)
# T1 construct: expressed in transfected cells
# Assay: Radioligand binding at the 5-HT6 receptor (3H-LSD displacement)
# Details: inhibition of 3H-LSD (1.6 nM) binding; membranes of cell line stably expressing human 5-HT6 receptor; 60 minutes at 37° C.
# Procedure: Radioligand Binding at the 5-HT6 Receptor
# Compounds of the present invention were evaluated using a cell line that stably expresses the human 5-HT6 receptor. Membranes prepared from the cell line were incubated with 3H-LSD (1.6 nM) in the presence of increasing concentrations (10^−10 to 10^−6 M) of test compounds for 60 minutes at 37° C. The reaction was terminated by vacuum filtration of the membranes and washing of the filters with assay buffer. Radioactivity retained on the filters was determined using liquid scintillation spectrometry. The potency of the test compound to inhibit 3H-LSD binding to the 5-HT6 receptor was defined as the concentration of compound required to inhibit 50% (IC50) of radioligand binding as determined by computer assisted analysis of the data. Clozapine was used as an internal standard for comparison.
# T1 sequence (P50406 whole entry): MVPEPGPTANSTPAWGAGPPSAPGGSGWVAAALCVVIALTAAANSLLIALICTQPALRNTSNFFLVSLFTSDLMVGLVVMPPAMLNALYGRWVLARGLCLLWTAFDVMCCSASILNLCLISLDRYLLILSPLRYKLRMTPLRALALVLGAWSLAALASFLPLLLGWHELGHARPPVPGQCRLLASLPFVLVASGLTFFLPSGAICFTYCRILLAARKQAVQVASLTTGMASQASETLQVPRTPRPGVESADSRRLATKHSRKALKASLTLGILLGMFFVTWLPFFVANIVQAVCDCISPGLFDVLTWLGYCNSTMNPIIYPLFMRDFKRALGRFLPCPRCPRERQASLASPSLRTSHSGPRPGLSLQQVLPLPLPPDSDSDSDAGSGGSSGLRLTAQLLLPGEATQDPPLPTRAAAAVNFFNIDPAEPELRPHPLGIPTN
row,Structure (SMILES),pIC50
1,"CSc1nc2ccccn2c(=N)c1S(=O)(=O)c1ccc(F)cc1 [Example 5, 3-(4-Fluoro-benzenesulfonyl)-2-methylsulfanyl-pyrido[1,2-a]pyrimidin-4-ylideneamine]",> 7.70
2,"CSc1nc2c(C)cc(Br)cn2c(=N)c1S(=O)(=O)c1ccccc1 [Example 16, 3-Benzenesulfonyl-7-bromo-9-methyl-2-methylsulfanyl-pyrido[1,2-a]pyrimidin-4-ylideneamine]",> 7.70
3,"COC(=O)c1ccc2nc(SC)c(S(=O)(=O)c3ccccc3)c(=N)n2c1 [Example 19, 3-Benzenesulfonyl-4-imino-2-methylsulfanyl-4H-pyrido[1,2-a]pyrimidine-7-carboxylic acid methyl ester]",6.00 to 7.00
4,"CSc1nc2cc(C)ccn2c(=N)c1S(=O)(=O)c1ccccc1 [Example 11, 3-Benzenesulfonyl-8-methyl-2-methylsulfanyl-pyrido[1,2-a]pyrimidin-4-ylideneamine]",> 7.70
5,"CSc1nc2ccccn2c(=N)c1S(=O)(=O)c1cc(C)c(Cl)cc1C [Example 4, 3-(2,5-Dimethyl-4-Chloro-benzenesulfonyl)-2-methylsulfanyl-pyrido[1,2-a]pyrimidin-4-ylideneamine]",> 7.70
6,"CSc1nc2ccc(Br)cn2c(=N)c1S(=O)(=O)c1ccccc1 [Example 12, 3-Benzenesulfonyl-7-bromo-2-methylsulfanyl-pyrido[1,2-a]pyrimidin-4-ylideneamine]",> 7.70
7,"CSc1nc2c(Br)cc(C)cn2c(=N)c1S(=O)(=O)c1ccccc1 [Example 15, 3-Benzenesulfonyl-9-bromo-7-methyl-2-methylsulfanyl-pyrido[1,2-a]pyrimidin-4-ylideneamine]",6.00 to 7.00
8,"CCCc1ccn2c(=N)c(S(=O)(=O)c3ccccc3)c(SC)nc2c1 [Example 18, 3-Benzenesulfonyl-2-methylsulfanyl-8-propyl-pyrido[1,2-a]pyrimidin-4-ylideneamine]",6.00 to 7.00
9,"CSc1nc2ccccn2c(=N)c1S(=O)(=O)c1ccc2ccccc2c1 [Example 3, 2-Methylsulfanyl-3-(naphthalene-2-sulfonyl)-pyrido[2-a]pyrimidin-4-ylideneamine]",7.00 to 7.30
10,"CSc1nc2ccccn2c(=N)c1S(=O)(=O)c1ccccc1 [Example 2, 3-Benzenesulfonyl-2-methylsulfanyl-pyrido[1,2-a]pyrimidin-4-ylideneamine]",> 7.70
11,"CSc1nc2c(C)cccn2c(=N)c1S(=O)(=O)c1ccccc1 [Example 10, 3-Benzenesulfonyl-9-methyl-2-methylsulfanyl-pyrido[1,2-a]pyrimidin-4-ylideneamine]",> 7.70
12,"CCc1ccn2c(=N)c(S(=O)(=O)c3ccccc3)c(SC)nc2c1 [Example 17, 3-Benzenesulfonyl-8-ethyl-2-methylsulfanyl-pyrido[1,2-a]pyrimidin-4-ylideneamine]",7.00 to 7.30
13,"CSc1nc2ccccn2c(=N)c1S(=O)(=O)c1ccccc1Cl [Example 7, 3-(2-Chloro-benzenesulfonyl)-2-methylsulfanyl-pyrido[1,2-a]pyrimidin-4-ylideneamine]",> 7.70
14,"CSc1nc2ccccn2c(=N)c1S(=O)(=O)c1ccc(C(C)(C)C)cc1 [Example 8, 3-(4-t-Butyl-benzenesulfonyl)-2-methylsulfanyl-pyrido[1,2-a]pyrimidin-4-ylideneamine]",7.00 to 7.30
15,"CSc1nc2ccccn2c(=N)c1S(=O)(=O)c1ccc(Cl)cc1 [Example 1, 3-(4-Chloro-benzenesulfonyl)-2-methylsulfanyl-pyrido[1,2-a]pyrimidin-4-ylideneamine]",> 7.70
16,"CSc1nc2ccccn2c(=N)c1S(=O)(=O)c1ccc(Cl)c(Cl)c1 [Example 6, 3-(3,4-Dichloro-benzenesulfonyl)-2-methylsulfanyl-pyrido[1,2-a]pyrimidin-4-ylideneamine]",> 7.70
17,"CSc1nc2ccc(Cl)cn2c(=N)c1S(=O)(=O)c1ccccc1 [Example 13, 3-Benzenesulfonyl-7-chloro-2-methylsulfanyl-pyrido[1,2-a]pyrimidin-4-ylideneamine]",> 7.70
18,"CSc1nc2ccc(C)cn2c(=N)c1S(=O)(=O)c1ccccc1 [Example 14, 3-Benzenesulfonyl-7-methyl-2-methylsulfanyl-pyrido[1,2-a]pyrimidin-4-ylideneamine]",> 7.70
19,"CSc1nc2ccccn2c(=N)c1S(=O)(=O)c1ccc(OC(F)(F)F)cc1 [Example 9, 3-(4-Trifluoromethoxy-benzenesulfonyl)-2-methylsulfanyl-pyrido[1,2-a]pyrimidin-4-ylideneamine]",6.00 to 7.00

# The remaining lines, values ahead:
row,pIC50,Structure (SMILES)
1,> 7.70,"COc1nc2ccccn2c(=N)c1S(=O)(=O)c1ccccc1 [Example 30, 3-Benzenesulfonyl-2-methoxy-pyrido[1,2-a]pyrimidin-4-ylideneamine]"
2,> 7.70,"CCNc1nc2ccccn2c(=N)c1S(=O)(=O)c1ccccc1 [Example 27, 3-(Benzenesulfonyl-4-imine-4H-pyrido[1,2-a]pyrimidin-2-yl)-ethyl-amine]"
3,7.00 to 7.30,"CSc1nc2c(C)cc(Cc3ccccc3)cn2c(=N)c1S(=O)(=O)c1ccccc1 [Example 20, 3-Benzenesulfonyl-7-benzyl-9-methyl-2-methylsulfanyl-pyrido[1,2-a]pyrimidin-4-ylideneamine]"
4,7.00 to 7.30,"CSc1nc2ccccn2c(=NC(C)=O)c1S(=O)(=O)c1ccccc1 [Example 34, N-(3-Benzenesulfonyl-2-methylsulfanyl-pyrido[1,2-a]pyrimidin-4-ylidene)-acetamide]"
5,> 7.70,CNc1nc2ccccn2c(=N)c1S(=O)(=O)c1ccccc1 [Example 26]
6,7.00 to 7.30,"CSc1nc2c3ncccc3ccn2c(=N)c1S(=O)(=O)c1ccccc1 [Example 24, 7-Benzenesulfonyl-6-methylsulfanyl-4,5,8a-triaza-phenanthren-8-ylideneamine]"
7,7.00 to 7.30,Cc1ccc(Nc2nc3ccc(C)cn3c(=N)c2S(=O)(=O)c2ccccc2)nc1 [Example 28]
8,6.00 to 7.00,"C[S+]([O-])c1nc2ccccn2c(=N)c1S(=O)(=O)c1ccccc1 (centres unmarked) [Example 32, 3-Benzenesulfonyl-2-methanesulfinyl-pyrido[1,2-a]pyrimidin-4-ylideneamine]"
9,6.00 to 7.00,"CSc1nc2c(OCc3ccccc3)cccn2c(=N)c1S(=O)(=O)c1ccccc1 [Example 22, 3-Benzenesulfonyl-9-benzyloxy-2-methylsulfanyl-pyrido[1,2-a]pyrimidin-4-ylideneamine]"
10,6.00 to 7.00,CN=c1c(S(=O)(=O)c2ccccc2)c(SC)nc2ccccn12 [Example 33]
11,7.00 to 7.30,"CSc1nc2ccccn2c(=O)c1S(=O)(=O)c1ccccc1 [Example 35, 3-Benzenesulfonyl-2-methylsulfanyl-pyrido[1,2-a]pyrimidin-4-one]"
12,7.00 to 7.30,"CSc1nc2c3ccccc3ccn2c(=N)c1S(=O)(=O)c1ccccc1 [Example 23, 3-Benzenesulfonyl-2-methylsulfanyl-pyrimido[2,1-a]isoquinolin-4-ylideneamine]"
13,> 7.70,"CSc1nc2ccc(F)cn2c(=N)c1S(=O)(=O)c1ccccc1 [Example 21, 3-Benzenesulfonyl-7-fluoro-2-methylsulfanyl-pyrido[1,2-a]pyrimidin-4-ylideneamine]"
14,> 7.70,"N=c1c(S(=O)(=O)c2ccccc2)c(NCCO)nc2ccccn12 [Example 29, 2-(3-Benzenesulfonyl-4-imino-4H-pyrido[1,2-a]pyrimidin-2-ylamino)-ethanol]"
15,> 7.70,"CSc1nc2ccc(C(N)=O)cn2c(=N)c1S(=O)(=O)c1ccccc1 [Example 25, 3-Benzenesulfonyl-4-imino-2-methylsulfanyl-4H-pyrido[1,2-a]pyrimidine-7-carboxylic acid amide]"
16,> 7.70,"CCOc1nc2ccccn2c(=N)c1S(=O)(=O)c1ccccc1 [Example 31, 3-Benzenesulfonyl-2-ethoxy-pyrido[1,2-a]pyrimidin-4-ylideneamine]"
